Seven compounds from US20120245137A1 (Zalicus Pharmaceuticals Ltd., priority 2009, published 2012) can be followed below.

Structures are written as SMILES. Read-outs that look alike come from different tables or passages of the source. A value given as a limit tells only on which side of the number the result lay.

In general, IC50 refers to the point on the concentration scale where inhibition reaches its midpoint.

What all share (type): cell-based
Test [1] has as its target T-type calcium channel (Homo sapiens, UniProt O95180). Briefly: T-type channel blocking, FLIPR data (Table 6). The note with it: for CAv3.2 IC50 Ratio closed/inact.: CAv3.2, ratio closed/inactivated IC50. From the text: (§1) Another method, high-throughput spectrophotometric assay, utilizes loading of the cell lines with a fluorescent dye sensitive to intracellular calcium concentration and subsequent examination of the effects of compounds on the ability of depolarization by potassium chloride or other means to alter intracellular calcium levels.

Test [2] deals with T-type calcium channel (Homo sapiens, UniProt O43497). Briefly: T-type channel blocking, FLIPR data (Table 6). The following applies: CAv3.1.
Description: as §1

For a further test, the target named is Human Cav 2.2 channels (Homo sapiens, UniProt Q00975). Briefly: Fluorescent assay for CaV2.2 channels using potassium depolarization (VIPR/FLIPR). The note with it: FLIPR data; for CAv2.2 IC50 Ratio closed/inact.: ratio closed/inactivated IC50. In short, it runs like this:
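HEK293 cells stably expressing human Cav2.2 with α2δ and β subunits plus Kir2.3 were loaded with fluo-4 and incubated 30 min at 25 °C with compound in 4, 12, 25 or 30 mM potassium buffer. Channels were opened with 70 mM potassium (final) and calcium influx was read by fluorescence (Ex 480/Em 535 nm).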

A further test has as its target CAv1.2 (Homo sapiens, UniProt Q13936). Briefly: FLIPR data, CAv1.2 channel blocking (Table 6). The note with it: for CAv1.2 IC50 Ratio closed/inact.: ratio closed/inactivated IC50.
Where [3] appears, read: CAv3.2, inactivated state, read-out: CAv3.2 IC50 Inact.
[4] abbreviates: closed state, read-out: CAv2.2 IC50 Closed.
The mark [5] stands for this setting: inactivated state, read-out: CAv2.2 IC50 Inact.
Where [6] appears, read: closed state, read-out: CAv1.2 IC50 Closed.
[7] abbreviates: inactivated state, read-out: CAv1.2 IC50 Inact.
Setting [8] is: CAv3.2, closed state, read-out: CAv3.2 IC50 Closed.

Sequence of Human Cav 2.2 channels (Q00975 whole entry): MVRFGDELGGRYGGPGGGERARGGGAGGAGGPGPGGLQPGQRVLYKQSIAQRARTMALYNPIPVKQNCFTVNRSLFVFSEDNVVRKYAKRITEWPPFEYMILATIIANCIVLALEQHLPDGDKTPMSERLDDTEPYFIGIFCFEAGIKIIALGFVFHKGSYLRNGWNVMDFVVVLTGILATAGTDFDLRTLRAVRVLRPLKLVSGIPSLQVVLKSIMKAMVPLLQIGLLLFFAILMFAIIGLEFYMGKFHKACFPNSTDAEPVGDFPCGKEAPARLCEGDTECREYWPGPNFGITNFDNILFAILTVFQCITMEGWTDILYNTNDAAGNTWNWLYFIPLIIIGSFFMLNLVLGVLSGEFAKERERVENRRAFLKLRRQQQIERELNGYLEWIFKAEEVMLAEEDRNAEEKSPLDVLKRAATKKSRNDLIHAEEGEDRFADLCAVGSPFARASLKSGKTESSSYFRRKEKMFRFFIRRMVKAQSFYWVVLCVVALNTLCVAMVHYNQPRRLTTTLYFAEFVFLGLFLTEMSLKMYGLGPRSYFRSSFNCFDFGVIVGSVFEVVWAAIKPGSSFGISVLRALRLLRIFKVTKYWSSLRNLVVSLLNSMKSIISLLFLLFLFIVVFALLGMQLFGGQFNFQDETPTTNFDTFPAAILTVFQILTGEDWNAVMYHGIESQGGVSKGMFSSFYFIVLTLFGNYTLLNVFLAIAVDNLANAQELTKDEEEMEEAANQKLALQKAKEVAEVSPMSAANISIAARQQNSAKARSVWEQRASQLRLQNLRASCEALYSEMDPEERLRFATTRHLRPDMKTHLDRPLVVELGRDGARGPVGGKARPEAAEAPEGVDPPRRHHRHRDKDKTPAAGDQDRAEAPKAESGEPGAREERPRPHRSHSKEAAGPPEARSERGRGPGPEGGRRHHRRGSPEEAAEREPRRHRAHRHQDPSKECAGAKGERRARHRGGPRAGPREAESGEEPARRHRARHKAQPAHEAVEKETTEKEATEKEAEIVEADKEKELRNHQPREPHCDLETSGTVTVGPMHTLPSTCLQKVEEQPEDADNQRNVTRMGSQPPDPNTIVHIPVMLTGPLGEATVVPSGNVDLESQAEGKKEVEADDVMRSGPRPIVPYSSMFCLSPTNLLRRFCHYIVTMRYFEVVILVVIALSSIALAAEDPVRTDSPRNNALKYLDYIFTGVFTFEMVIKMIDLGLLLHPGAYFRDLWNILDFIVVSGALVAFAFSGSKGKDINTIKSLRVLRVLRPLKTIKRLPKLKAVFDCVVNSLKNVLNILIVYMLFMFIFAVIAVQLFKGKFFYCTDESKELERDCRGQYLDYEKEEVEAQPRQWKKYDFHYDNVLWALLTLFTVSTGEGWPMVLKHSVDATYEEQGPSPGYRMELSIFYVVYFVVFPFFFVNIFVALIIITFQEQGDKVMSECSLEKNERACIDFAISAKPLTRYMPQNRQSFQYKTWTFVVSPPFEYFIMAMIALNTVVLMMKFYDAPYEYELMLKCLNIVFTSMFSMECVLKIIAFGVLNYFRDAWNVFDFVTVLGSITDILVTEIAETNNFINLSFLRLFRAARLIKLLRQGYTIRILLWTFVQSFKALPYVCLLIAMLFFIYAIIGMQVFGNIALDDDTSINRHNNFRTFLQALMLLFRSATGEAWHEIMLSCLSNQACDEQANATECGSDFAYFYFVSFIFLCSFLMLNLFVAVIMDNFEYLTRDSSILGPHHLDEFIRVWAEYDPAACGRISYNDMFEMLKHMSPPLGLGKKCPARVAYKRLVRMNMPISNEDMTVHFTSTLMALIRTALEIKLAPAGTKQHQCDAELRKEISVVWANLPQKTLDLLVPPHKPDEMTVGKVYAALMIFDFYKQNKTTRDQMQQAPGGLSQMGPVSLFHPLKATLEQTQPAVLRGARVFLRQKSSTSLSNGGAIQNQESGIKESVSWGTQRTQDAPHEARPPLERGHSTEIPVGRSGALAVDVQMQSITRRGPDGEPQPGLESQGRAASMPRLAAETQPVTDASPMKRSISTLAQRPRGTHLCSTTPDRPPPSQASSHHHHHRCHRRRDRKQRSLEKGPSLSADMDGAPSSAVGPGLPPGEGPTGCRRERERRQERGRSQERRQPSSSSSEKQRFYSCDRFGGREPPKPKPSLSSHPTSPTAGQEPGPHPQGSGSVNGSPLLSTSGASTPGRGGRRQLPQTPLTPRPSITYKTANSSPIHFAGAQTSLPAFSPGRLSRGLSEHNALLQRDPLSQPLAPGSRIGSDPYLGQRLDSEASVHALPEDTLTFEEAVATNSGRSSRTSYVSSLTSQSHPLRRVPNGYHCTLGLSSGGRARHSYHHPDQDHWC
Sequence of Human Cav 2.2 channels (P54289 25-1103 partner): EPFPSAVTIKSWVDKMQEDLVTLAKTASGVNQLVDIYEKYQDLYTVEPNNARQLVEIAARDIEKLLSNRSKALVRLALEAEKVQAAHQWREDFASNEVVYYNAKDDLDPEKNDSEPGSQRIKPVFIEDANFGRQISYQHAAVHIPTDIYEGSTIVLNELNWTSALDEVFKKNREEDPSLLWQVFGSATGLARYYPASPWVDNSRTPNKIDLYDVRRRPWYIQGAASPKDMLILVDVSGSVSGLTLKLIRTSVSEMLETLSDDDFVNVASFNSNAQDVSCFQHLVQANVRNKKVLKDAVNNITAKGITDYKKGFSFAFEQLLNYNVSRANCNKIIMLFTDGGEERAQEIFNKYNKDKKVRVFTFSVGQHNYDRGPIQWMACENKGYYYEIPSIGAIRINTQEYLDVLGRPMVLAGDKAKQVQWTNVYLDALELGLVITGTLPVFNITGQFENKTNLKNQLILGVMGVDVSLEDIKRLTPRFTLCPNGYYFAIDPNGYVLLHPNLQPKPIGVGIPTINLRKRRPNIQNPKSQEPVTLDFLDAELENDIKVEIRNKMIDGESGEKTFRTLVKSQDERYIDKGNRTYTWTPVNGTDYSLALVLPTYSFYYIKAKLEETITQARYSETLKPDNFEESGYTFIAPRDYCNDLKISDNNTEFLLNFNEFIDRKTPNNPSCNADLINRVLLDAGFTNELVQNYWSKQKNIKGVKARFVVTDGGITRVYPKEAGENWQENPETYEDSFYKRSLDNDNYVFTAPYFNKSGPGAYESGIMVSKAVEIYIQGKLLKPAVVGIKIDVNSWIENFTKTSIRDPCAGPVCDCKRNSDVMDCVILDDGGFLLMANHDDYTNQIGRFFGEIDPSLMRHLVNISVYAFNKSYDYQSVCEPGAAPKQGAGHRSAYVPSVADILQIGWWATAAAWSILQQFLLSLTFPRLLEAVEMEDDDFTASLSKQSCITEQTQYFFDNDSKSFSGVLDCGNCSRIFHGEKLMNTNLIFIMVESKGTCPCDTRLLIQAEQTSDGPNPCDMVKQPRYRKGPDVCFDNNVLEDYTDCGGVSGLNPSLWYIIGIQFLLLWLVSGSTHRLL
Sequence of Human Cav 2.2 channels (P54284 whole entry partner): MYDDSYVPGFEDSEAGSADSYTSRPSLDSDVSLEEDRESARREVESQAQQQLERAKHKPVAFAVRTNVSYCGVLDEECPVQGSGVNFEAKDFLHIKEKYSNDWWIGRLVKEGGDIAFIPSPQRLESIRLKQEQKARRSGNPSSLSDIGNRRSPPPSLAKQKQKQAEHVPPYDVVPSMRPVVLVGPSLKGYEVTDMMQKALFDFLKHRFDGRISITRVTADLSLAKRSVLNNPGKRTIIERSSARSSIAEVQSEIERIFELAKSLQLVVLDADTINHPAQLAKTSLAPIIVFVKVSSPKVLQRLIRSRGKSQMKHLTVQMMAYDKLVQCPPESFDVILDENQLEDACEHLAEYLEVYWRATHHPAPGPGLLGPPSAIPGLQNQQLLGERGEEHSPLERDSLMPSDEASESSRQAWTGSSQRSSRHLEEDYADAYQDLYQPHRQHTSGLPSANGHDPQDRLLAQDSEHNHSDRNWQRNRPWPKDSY

On to `Cc1nc(S(=O)(=O)N[C@H]2C[C@H](C(C)(C)S(=O)(=O)c3cc(F)cc(C(F)(F)F)c3)C2)cn1C` [Compound 611], for which the 50% inhibitory concentration (IC50) on T-type calcium channel [1] (setting [3]) was 10 µM; at T-type calcium channel [2], no less than 10 µM; at Human Cav 2.2 channels (setting [4]), 10 µM; at Human Cav 2.2 channels (setting [5]) it was 9.14 µM; at CAv1.2 (setting [6]), no less than 10 µM; on CAv1.2 (setting [7]) it was no less than 10 µM. Moreover, the “CAv2.2 IC50 Ratio closed/inact.” value on Human Cav 2.2 channels was 1.1.

For the compound `CC(C)([C@H]1C[C@H](NS(=O)(=O)c2ccc(C(F)(F)F)cc2Cl)C1)S(=O)(=O)c1cc(F)cc(C(F)(F)F)c1` [Compound 623], the IC50 at T-type calcium channel [1] (setting [8]) was no less than 10 µM; at T-type calcium channel [1] (setting [3]) it was 1.54 µM; at T-type calcium channel [2], 5.3 µM; on Human Cav 2.2 channels (setting [4]), 3.37 µM; at Human Cav 2.2 channels (setting [5]), 0.74 µM; at CAv1.2 (setting [6]), 8.07 µM. In addition, the IC50 on CAv1.2 (setting [7]) amounted to 1.54 µM. At T-type calcium channel [1], the “CAv3.2 IC50 Ratio closed/inact.” value came out at 6.5. Besides, at Human Cav 2.2 channels, the “CAv2.2 IC50 Ratio closed/inact.” value turned out to be 4.6. The “CAv1.2 IC50 Ratio closed/inact.” value at CAv1.2 came to 5.2.

As for `CC(C)([C@H]1C[C@@H](NS(=O)(=O)c2ccc(F)c(Cl)c2)C1)S(=O)(=O)c1cc(F)cc(C(F)(F)F)c1` [Compound 599], the IC50 on T-type calcium channel [1] (setting [8]) was no less than 10 µM; on T-type calcium channel [1] (setting [3]) it was 4.4 µM; on T-type calcium channel [2] it was 5.59 µM; on Human Cav 2.2 channels (setting [4]) it was 6.14 µM; at Human Cav 2.2 channels (setting [5]) it was 1.03 µM; at CAv1.2 (setting [6]), 8.85 µM. At CAv1.2 (setting [7]), the half-inhibitory concentration (IC50) was 3.05 µM. Besides, the “CAv3.2 IC50 Ratio closed/inact.” value on T-type calcium channel [1] amounted to 2.3. For the same compound, at Human Cav 2.2 channels, the “CAv2.2 IC50 Ratio closed/inact.” value was 6. Also, the “CAv1.2 IC50 Ratio closed/inact.” value at CAv1.2 came to 2.9.

For the compound `CC(C)(C[C@H]1C[C@H](NC(=O)c2ccc(C(F)(F)F)cc2)C1)S(=O)(=O)c1cccc(C(F)(F)F)c1` [Compound 719], the IC50 came to 0.73 µM on T-type calcium channel [1] (setting [8]); 0.64 µM on T-type calcium channel [1] (setting [3]); 1.78 µM on T-type calcium channel [2]; 1.24 µM on Human Cav 2.2 channels (setting [4]); 0.11 µM on Human Cav 2.2 channels (setting [5]); 2.73 µM on CAv1.2 (setting [6]). Moreover, the half-inhibitory concentration (IC50) at CAv1.2 (setting [7]) is 0.75 µM. In addition, the “CAv3.2 IC50 Ratio closed/inact.” value at T-type calcium channel [1] came to 1.1. For the same compound, the “CAv2.2 IC50 Ratio closed/inact.” value at Human Cav 2.2 channels amounted to 11.3. On CAv1.2, the “CAv1.2 IC50 Ratio closed/inact.” value was 3.6.

As to `CC(C)([C@H]1C[C@H](NC(=O)c2ccc(Cl)c(F)c2)C1)S(=O)(=O)c1cc(F)cc(C(F)(F)F)c1` [Compound 596], the IC50 at T-type calcium channel [1] (setting [8]) is 3.13 µM; at T-type calcium channel [1] (setting [3]) it was 1.11 µM; at T-type calcium channel [2] it was 9.74 µM; at Human Cav 2.2 channels (setting [4]), 1.73 µM; on Human Cav 2.2 channels (setting [5]) it was 0.26 µM; on CAv1.2 (setting [6]) it was 3.63 µM. In addition, at CAv1.2 (setting [7]), the 50% inhibitory concentration (IC50) stood at 1.43 µM. Besides, the “CAv3.2 IC50 Ratio closed/inact.” value at T-type calcium channel [1] stood at 2.8. The “CAv2.2 IC50 Ratio closed/inact.” value at Human Cav 2.2 channels was 6.7. In addition, the “CAv1.2 IC50 Ratio closed/inact.” value at CAv1.2 is 2.5.

Take `CC(C)([C@H]1C[C@@H](NS(=O)(=O)c2ccc(C(F)(F)F)cc2)C1)S(=O)(=O)c1cccc(C(F)(F)F)c1` [Compound 624]: the half-inhibitory concentration (IC50) on T-type calcium channel [1] (setting [8]) is 2.96 µM; on T-type calcium channel [1] (setting [3]) it was 2.26 µM; at T-type calcium channel [2] it was 2.96 µM; at Human Cav 2.2 channels (setting [4]) it was 10 µM; on Human Cav 2.2 channels (setting [5]), 0.8 µM; on CAv1.2 (setting [6]), no less than 10 µM. The IC50 on CAv1.2 (setting [7]) worked out at 5.54 µM. On T-type calcium channel [1], the “CAv3.2 IC50 Ratio closed/inact.” value was determined as 1.3. Moreover, the “CAv2.2 IC50 Ratio closed/inact.” value at Human Cav 2.2 channels is given as 12.5. The “CAv1.2 IC50 Ratio closed/inact.” value on CAv1.2 worked out at 1.8.

Take `O=C(NC[C@H]1C[C@H](S(=O)(=O)c2cc(F)cc(C(F)(F)F)c2)C1)c1ccc(C(F)(F)F)cc1` [Compound 703]: the IC50 is 4.14 µM at T-type calcium channel [1] (setting [8]); 1.39 µM at T-type calcium channel [1] (setting [3]); 1.86 µM at T-type calcium channel [2]; 6.49 µM at Human Cav 2.2 channels (setting [4]); 0.83 µM at Human Cav 2.2 channels (setting [5]); 8.18 µM at CAv1.2 (setting [6]). On CAv1.2 (setting [7]), the IC50 was 4.83 µM. The “CAv3.2 IC50 Ratio closed/inact.” value on T-type calcium channel [1] is 3. For the same compound, the “CAv2.2 IC50 Ratio closed/inact.” value on Human Cav 2.2 channels is listed as 7.8. For the same compound, on CAv1.2, the “CAv1.2 IC50 Ratio closed/inact.” value is 1.7.
